Assay results: patent publication US8076094B2, “Phosphorylation of histone H3 at threonine 11—a novel epigenetic mark for transcriptional regulation” (Universitaetsklinixum Freiburg, priority 2007, dated 2011)
Entries after “also recorded” stand apart in the source; their conditions may differ.

Columns and labels:
[1] = test system: PSA and KLK2 promoters in LNCaP cells; assay: Chromatin immunoprecipitation (ChIP) at AREs of PSA and KLK2 promoters in LNCaP cells; type: cell-based; conditions: for ligand-induced phosphorylation of H3T11 at AREs of PSA and KLK2 promoters: 1×10^−8 M R1881 45 min, FIG. 2d, e; for S5-P CTD pol II at the promoters of PSA and KLK2 / recruitment of RNA polymerase II (α-NTD pol II): Ro318220 1×10^−5 M, FIG. 3f, g
Description: Chromatin Immunoprecipitation ChIP and Re-ChIP experiments were performed as described^5,9. LNCaP cells were cultured for 45 min (FIGS. 1c, 2d, 2e) or 210 min (FIG. 3a, b, f, g) in the presence or absence of 1×10^−8 M R1881 as indicated. Ro318220 (1×10^−5 M) was added to the LNCaP cells (FIG. 3b, g) 60 min before addition of R1881. Three days before harvesting, LNCaP cells were transfected with stealth RNAi (ctr: 5′-[…]-3′ (Sequence Protocol: 5) (SEQ ID NO: 5); PRK1: 5′-[…]-3′ (Sequence Protocol: 6) (SEQ ID NO: 6); Invitrogen) following the manufacturer's instructions. Immunoprecipitation was performed with specific antibodies (α-monoMeH3K9, α-diMeH3K9, α-triMeH3K9, α-acetyl-H3K9/K14, α-H3, α-AR (Upstate Biotechnology), α-S5-P CTD pol II, α-phosphoH3T11 (Abcam), α-NTD pol II (N-20, Santa Cruz), α-LSD1^5, α-JMJD2C^4, and α-PRK1) on protein A-Sepharose 4B (GE-Healthcare). For PCR, 1-5 μl out of 50 μl DNA extract was used. PCR primers for ARE I+II (PSA-459/-121), ARE III (PSA-4288/-3922), KLK2 (−343/-90), GAPDH, and U6 were described previously^5. Western Blot Analysis

[2] = test system: endogenous PRK1 and AR in LNCaP cells; assay: Western blot analysis of knockdown in LNCaP cells; type: cell-based
From the text: (§1) To initiate our study, we analysed the effect of PRK1 knockdown on the expression of endogenous AR target genes.
To determine whether PRK1 controls phosphorylation of H3T11 at promoters of AR-regulated genes in vivo, LNCaP cells were first transfected with either an unrelated control siRNA or a siRNA directed against PRK1, in the presence or absence of R1881, and then subjected to ChIP. Addition of ligand results in phosphorylation of H3T11 at the AREs of the PSA and KLK2 promoters (FIG. 2d, left panel). Androgen-induced phosphorylation at H3T11 is PRK1-dependent since it is blocked by knockdown of PRK1. […] To corroborate that androgen-induced phosphorylation of H3T11 is executed by PRK1, LNCaP cells were cultivated in the presence or absence of Ro318220 and subjected to ChIP.
Experiments were performed as described^2. Western blots were decorated as indicated.

PRK1 = assay: In vitro kinase assay; type: biochemical
Description: To understand how association of PRK1 and AR with chromatin results in increased gene expression, we tested whether PRK1 directly phosphorylates the N-terminal tail of histone H3. Myc-PRK1 and the flag-tagged kinase dead mutant PRK1 K644E^2 were immunoprecipitated from 293 cell lysates with an α-myc or an α-flag antibody, respectively (FIG. 6a, b), and incubated with bacterially expressed and purified GST-H3 1-44 or GST control protein. GST-H3 1-44 is phosphorylated by PRK1, but not by PRK1 K644E (FIG. 2a).
In addition, we incubated nucleosomes purified from HeLa cells with recombinant PRK1 in the presence or absence of Ro318220. […] This phosphorylation is blocked by Ro318220 (FIG. 2c).
The kinase assays were performed as described^11. 10 μg GST-tagged H3 proteins or 1 μg of nucleosomes purified from HeLa cells^12 were incubated with immunoprecipitated PRK1 proteins (FIG. 2a) or 1 μg purified recombinant PRK1 (FIG. 2b, c; ProQinase GmbH) for 0 to 10 min (FIG. 2c) or 20 min (FIG. 2a, b) at 30° C. in kinase buffer containing 20 mM Tris-HCl pH 7.5, 20 μM ATP, 8 mM MgCl2, and 5 μCi (γ-^32P) ATP. The reaction mixture was analysed by SDS-PAGE followed by autoradiography or Western blotting using antibodies as indicated.

[3] = test system: AR-dependent reporters in LNCaP cells; assay: AR-dependent reporter (luciferase) assay in LNCaP cells; type: cell-based; conditions: R1881, FIG. 5a, b
Description: CV1 and LNCaP cells were cultured and transfected as described^2. The following amounts were transfected per well: 500 ng of MMTV-LUC, Probasin-LUC, or PSA-LUC; 25 ng of AR expression plasmid; 200 ng (FIG. 3e) or 400 ng (FIG. 3c, d) expression plasmids of LSD1 or JMJD2C, 150 ng PRK1 K644E, 1000 ng expression plasmid of miRNA-control, miRNA1-PRK1, or miRNA2-PRK1 (FIG. 5a). Cells were cultivated for 18 hours in the presence or absence of 1×10^−10 M R1881 (Sigma), 2.5×10^−6 M (FIG. 3d) or 4.5×10^−6 M (FIG. 3c) Ro318220 (Roche) as indicated. Luciferase activity was assayed as described^2. All experiments were repeated at least four times in duplicate.

[4] = test system: androgen-induced expression of endogenous AR target genes PSA and KLK2 in LNCaP cells; assay: Quantitative RT-PCR of endogenous AR target genes in LNCaP cells; type: cell-based; conditions: presence or absence of R1881, FIG. 1a, b
Description: as §1
Quantitative RT-PCR and statistical analysis were performed as described^5. The primers for GAPDH, PSA, and KLK2 were described previously^5.

[5] = R1881 210 min, Ro318220 1×10^−5 M 60 min before R1881, stealth RNAi three days before harvesting, FIG. 3a, b

| Molecule | ligand-induced phosphorylation of H3T11 at AREs of PSA and KLK2 promoters [1] | ligand-induced acetylation of H3K9/K14 [1, 5] | ligand-induced demethylation of tri-, di-, and monomethyl H3K9 [1, 5] | S5-P CTD pol II at the promoters of PSA and KLK2 ([1]; R1881 210 min) | recruitment of RNA polymerase II (α-NTD pol II) ([1]; R1881 210 min) | down-regulation of endogenous PRK1 ([2]; FIG. 1a, 2d right panels) | levels of endogenous AR ([2]; FIG. 2d right panel) | phosphorylation of GST-H3 1-44 by PRK1 (PRK1; immunoprecipitated Myc-PRK1, 20 min at 30° C., FIG. 2a) | phosphorylation of nucleosomes at H3T11 by PRK1 (PRK1; nucleosomes from HeLa cells, recombinant PRK1, 0 to 10 min, Western blot α-phosphoH3T11, FIG. 2c) | ligand-induced expression of AR-dependent reporters [3] | androgen-induced expression of endogenous AR target genes (PSA, KLK2) [4] |
| --- | --- | --- | --- | --- | --- | --- | --- | --- | --- | --- | --- |
| 5′-GAAAGUCCUAGAUCCACACGCAAAU-3′ (siRNA; Stealth RNAi from Invitrogen, chemistry not given here) [siRNA directed against PRK1] | blocked | blocked | severely impaired | loss | not affected | depletion is specific | does not affect | – | – | – | – |
| Cn1cc(C2=C(c3cn(CCCSC(=N)N)c4ccccc34)C(=O)NC2=O)c2ccccc21 [Ro318220] | efficiently blocks | – | loss | loss | not affected | – | – | completely blocks | blocked | severely reduce; also recorded: strong decrease | reduce expression; also recorded: severely impedes |
